From US6727076B2 (priority 1995, dated 2004) come the findings set out here.

“Also recorded” adds a separate entry of the source. Counter-ions that a name gives are not always drawn.

Experiment [1] relates to E. coli MG1655. The format is cell-based.
Experiment [2] deals with E. coli MG1655. The format is cell-based. This is another data set of the same source.
For experiment [3], the system named is E. coli 287 (ATCC #11775). The format is cell-based.
Another experiment concerns T. harzianum DAOM 190830. The format is cell-based, Trichoderma harzianum.

As for `Cc1cn([C@H]2C[C@H](OP(=O)(O)O)[C@@H](CO)O2)c(=O)[nH]c1=O` [thymidine 3′-monophosphate], in the experiment on E. coli MG1655 [1], the “suitability as phosphorus source (growth, purple color)” value (“suitability as phosphorus source” for short) is recorded as “positive”.
On to `O=S1(=O)CCCC1` [tetramethylene sulfone], for which the “suitability as sulfur source (growth, purple color)” value (shortened to “suitability as sulfur source”) in the experiment with E. coli MG1655 [1] is reported as “not suitable”.
Consider `NCCS(=O)(=O)O` [taurine], for which the “suitability as sulfur source” value with E. coli MG1655 [1] is recorded as “positive”.
For the molecule `N[C@@H](CS)C(=O)O` [L-cysteine], the “suitability as nitrogen source (growth, purple color)” value (“suitability as nitrogen source” below) with E. coli MG1655 [2] is reported as “not suitable”. The “suitability as sulfur source” value in the experiment on E. coli MG1655 [1] is recorded as “positive”.
For the molecule `O=C(O)CP(=O)(O)O` [phosphonoacetic acid], in the experiment with E. coli MG1655 [1], the “suitability as phosphorus source” value is reported as “not suitable”.
Consider `O=P(O)(O)CP(=O)(O)O` [methylene diphosphonic acid], for which, in the experiment with E. coli MG1655 [1], the “suitability as phosphorus source” value was “not suitable”.
As for `CCCCCCCCCCCCS(=O)(=O)O` [1-dodecane-sulfonic acid], the “suitability as sulfur source” value with E. coli MG1655 [1] was “not suitable”.
As to `N[C@H](COP(=O)(O)O)C(=O)O` [O-phospho-D-serine], the “suitability as phosphorus source” value in the experiment with E. coli MG1655 [1] is reported as “positive”.
The same measure, in the same setting: in the case of `N[C@H]1C(OP(=O)(O)O)O[C@H](CO)[C@@H](O)[C@@H]1O` (some centres unmarked) [glucosamine 1-phosphate] it was “positive”.
On to `C[S+]([O-])CC[C@H](N)C(=O)O` (stereo partly drawn) [L-methionine sulfoxide], for which the “suitability as sulfur source” value with E. coli MG1655 [1] is given as “positive”.
On to `CSCC[C@H](N)C(=O)O` [L-methionine], for which the “suitability as nitrogen source” value in the experiment with E. coli MG1655 [2] was “not suitable”. Further, the “suitability as sulfur source” value in the experiment on E. coli MG1655 [1] was “positive”.
`O=C(O)CCCCCCCCC(=O)O` [sebacic acid]: the results for the “carbon source utilization result” value (in experiment [3]; in the experiment on T. harzianum DAOM 190830) were “negative” and “positive”, respectively.
As for `O=S(O)(O)=S` [thiosulfate], the “suitability as sulfur source” value in the experiment with E. coli MG1655 [1] is “positive”.
On to `Nc1nc2c(ncn2[C@@H]2O[C@H](CO)[C@@H](OP(=O)(O)O)[C@H]2O)c(=O)[nH]1` [guanosine 3′-monophosphate], for which, in the experiment on E. coli MG1655 [1], the “suitability as phosphorus source” value is given as “positive”.
The same measure, in the same setting: next, `O=C(O)[C@H](O)[C@@H](O)[C@H](O)[C@H](O)COP(=O)(O)O` [6-phosphogluconic acid]: “positive”.
As to glycogen, in the experiment with T. harzianum DAOM 190830, the “carbon source utilization result” value is listed as “positive”.
For `O=P(O)(O)OP(=O)(O)OP(=O)(O)O` [tripolyphosphate], the “suitability as phosphorus source” value in the experiment on E. coli MG1655 [1] is reported as “not suitable”.
On to `CC(=O)OC[C@H](N)C(=O)O` [O-acetyle-serine with sodium sulfate, O-acetyl-serine], for which, in the experiment with E. coli MG1655 [1], the “suitability as sulfur source” value was “positive”.
In the case of `O=C[C@H](O)[C@@H](O)[C@H](O)[C@H](O)COP(=O)(O)O` [Glucose-6-phosphate], in experiment [3], the “carbon source utilization result” value is recorded as “positive”. Besides, the “suitability as phosphorus source” value with E. coli MG1655 [1] is reported as “positive”.
With `O=C[C@@H](O)[C@H](O)[C@H](O)COP(=O)(O)O` [arabinose 5-phosphate], the “suitability as phosphorus source” value in the experiment on E. coli MG1655 [1] is given as “positive”.
With `O=S(=O)(O)SSS(=O)(=O)O` [tetrathionate], in the experiment with E. coli MG1655 [1], the “suitability as sulfur source” value is recorded as “positive”.
Regarding `O=c1ccn([C@@H]2O[C@H](CO)[C@@H](O)[C@H]2OP(=O)(O)O)c(=O)[nH]1` [uridine 2′-monophosphate], in the experiment on E. coli MG1655 [1], the “suitability as phosphorus source” value is “positive”.
Consider `O=C(COP(=O)(O)O)[C@@H](O)[C@H](O)[C@H](O)CO` [fructose 1-phosphate], for which the “suitability as phosphorus source” value in the experiment on E. coli MG1655 [1] is on record as “positive”.
On to `CSCCC(NC(C)=O)C(=O)O` (racemic) [N-acetyl-DL-methionine], for which, in the experiment with E. coli MG1655 [1], the “suitability as sulfur source” value is on record as “positive”.
On to `Nc1nc2c(ncn2[C@@H]2O[C@@H]3COP(=O)(O)O[C@H]3[C@H]2O)c(=O)[nH]1` [guanosine 3′:5′-cyclic monophosphate], for which the “suitability as phosphorus source” value in the experiment on E. coli MG1655 [1] is recorded as “not suitable”.
Still for that read-out and setting: in the case of `CN(CC(=O)O)C(=N)NP(=O)(O)O` [phosphocreatine] it was “positive”.
Take `N[C@@H](CSCSC[C@H](N)C(=O)O)C(=O)O` [L-djenkolic acid]: in the experiment on E. coli MG1655 [1], the “suitability as sulfur source” value is “positive”.
For the molecule `O=C[C@@H](O)[C@@H](O)[C@H](O)[C@H](O)COP(=O)(O)O` [mannose 6-phosphate], the “suitability as phosphorus source” value in the experiment with E. coli MG1655 [1] is recorded as “positive”.
On the same count and under the same terms, next, `O=C(CO)[C@@H](O)[C@H](O)[C@H](O)COP(=O)(O)O` [Fructose-6-phosphate]: “positive”.
As to `CSC[C@H](N)C(=O)O` [S-methyl-L-cysteine], the “suitability as sulfur source” value in the experiment on E. coli MG1655 [1] is “weak positive”.
The same measure, in the same setting: next, `CCSCCC(N)C(=O)O` (racemic) [DL-ethionine]: “not suitable”; `O=C(O)CS` [thioglycolic acid]: “not suitable”.
For the molecule phosphatidyl glycerol, the “suitability as phosphorus source” value in the experiment on E. coli MG1655 [1] is “not suitable”.
The same measure, in the same setting: next, `C=C(OP(=O)(O)O)C(=O)O` [phosphoenol pyruvate]: “positive”; `Nc1nc2c(ncn2[C@@H]2O[C@H](CO)[C@H]3OP(=O)(O)O[C@H]32)c(=O)[nH]1` [guanosine 2′:3′-cyclic monophosphate]: “positive”.
With `Cc1cn([C@H]2C[C@H](O)[C@@H](COP(=O)(O)O)O2)c(=O)[nH]c1=O` [thymidine 5′-monophosphate], the “suitability as phosphorus source” value with E. coli MG1655 [1] is listed as “positive”.
In the case of `N[C@@H](CS(=O)O)C(=O)O` [L-cysteine sulphinic acid], in the experiment with E. coli MG1655 [1], the “suitability as sulfur source” value is recorded as “positive”.
In the case of `O=P(O)(O)OC1O[C@H](CO)[C@@H](O)[C@H](O)[C@@H]1O` (some centres unmarked) [mannose 1-phosphate], the “suitability as phosphorus source” value with E. coli MG1655 [1] is given as “positive”.
For the molecule `NCCCC(=O)O` [γ-aminobutyric acid], the “suitability as nitrogen source” value in the experiment on E. coli MG1655 [2] is “weak positive; also recorded: not suitable”. For the same molecule, the “carbon source utilization result” value in the experiment with T. harzianum DAOM 190830 was “positive”.
Take `NCCC[C@H](N)C(=O)O` [L-ornithine]: the “suitability as nitrogen source” value with E. coli MG1655 [2] is recorded as “not suitable”. In addition, the “carbon source utilization result” value with T. harzianum DAOM 190830 is listed as “positive”.
`NC(=O)CCC(=O)O` [succinamic acid]: in the experiment with T. harzianum DAOM 190830, the “carbon source utilization result” value is reported as “positive”.
Regarding `O=P(O)(O)OP(=O)(O)O` [pyrophosphate], the “suitability as phosphorus source” value with E. coli MG1655 [1] was “not suitable”.
`N[C@@H](CS)C(=O)NCC(=O)O` [cys-gly]: in the experiment with E. coli MG1655 [1], the “suitability as sulfur source” value was “positive”.
Still for that read-out and setting: in the case of `NCCS(=O)O` [hypotaurine] it was “positive”.
For the molecule `N[C@H]1C(O)O[C@H](COP(=O)(O)O)[C@@H](O)[C@@H]1O` (some centres unmarked) [glucosamine 6-phosphate], the “suitability as phosphorus source” value in the experiment on E. coli MG1655 [1] is “positive”.
For the molecule `CSCCC(NC(=O)CN)C(=O)O` (racemic) [glycyl-DL-methionine], in the experiment on E. coli MG1655 [1], the “suitability as sulfur source” value is recorded as “positive”.
In the case of `N[C@@H](CCSC[C@H](N)C(=O)O)C(=O)O` [cystathionine], the “suitability as sulfur source” value in the experiment on E. coli MG1655 [1] is listed as “positive”.
`C[C@@H](OP(=O)(O)O)[C@H](N)C(=O)O` [O-phospho-L-threonine]: the “suitability as phosphorus source” value in the experiment with E. coli MG1655 [1] is reported as “positive”.
As to `OP(O)(O)=S` [thiophosphate], in the experiment on E. coli MG1655 [1], the “suitability as phosphorus source” value was “positive” and the “suitability as sulfur source” value is on record as “positive”.
For `N[C@H](Cc1ccc(OP(=O)(O)O)cc1)C(=O)O` [O-phospho-D-tyrosine], in the experiment with E. coli MG1655 [1], the “suitability as phosphorus source” value is given as “positive”.
On to `N[C@@H](CSC[C@H](N)C(=O)O)C(=O)O` [lanthionine], for which the “suitability as sulfur source” value with E. coli MG1655 [1] is “positive”.
For the molecule `O=C(O)CCC(=O)C(=O)O` [α-ketoglutaric acid], in the experiment on T. harzianum DAOM 190830, the “carbon source utilization result” value is “positive”.
In the case of `N[C@@H](CCC(=O)N[C@@H](CS)C(=O)NCC(=O)O)C(=O)O` [glutathione (reduced form)], the “suitability as nitrogen source” value with E. coli MG1655 [2] is “not suitable”. Besides, the “suitability as sulfur source” value in the experiment with E. coli MG1655 [1] is “positive”.
For the molecule `N[C@@H](COP(=O)(O)O)C(=O)O` [O-phospho-L-serine], the “suitability as phosphorus source” value in the experiment on E. coli MG1655 [1] was “positive”.
On the same count and under the same terms, next, `O=P(O)(O)OC(CO)CO` [β-glycerophosphate]: “positive”.
The same measure, in the same setting: next, `N[C@@H](Cc1ccc(OP(=O)(O)O)cc1)C(=O)O` [O-phospho-L-tyrosine]: “positive”; `O=C(O)C(CO)OP(=O)(O)O` (centres unmarked) [2-phosphoglyceric acid]: “positive”; `O=P(O)(O)O[C@H]1[C@H](OP(=O)(O)O)[C@@H](OP(=O)(O)O)[C@H](OP(=O)(O)O)[C@@H](OP(=O)(O)O)[C@H]1OP(=O)(O)O` [inositol hexaphosphate]: “not suitable”.
Consider `O=C(O)COP(=O)(O)O` [phosphoglycolic acid], for which the “suitability as phosphorus source” value with E. coli MG1655 [1] is given as “positive”.
Regarding `C[C@H](CCC(=O)NCCS(=O)(=O)O)[C@H]1CC[C@H]2[C@@H]3[C@H](O)C[C@@H]4C[C@H](O)CC[C@]4(C)[C@H]3C[C@H](O)[C@]12C` [taurocholic acid], in the experiment on E. coli MG1655 [1], the “suitability as sulfur source” value is on record as “positive”.
With `O=S(=O)(O)CCO` [isethionate], the “suitability as sulfur source” value in the experiment with E. coli MG1655 [1] is on record as “positive”.
Turning to `NCCc1ccccc1` [Phenylethyl amine], the “carbon source utilization result” value in experiment [3] is “positive/negative”. Moreover, in the experiment with E. coli MG1655 [2], the “suitability as nitrogen source” value is given as “not suitable”.
Consider `CC(=O)N[C@@H](CS)C(=O)O` [N-acetyl cysteine], for which the “suitability as sulfur source” value in the experiment on E. coli MG1655 [1] was “not suitable”.
The same measure, in the same setting: in the case of `CS(=O)(=O)CC[C@H](N)C(=O)O` [L-methionine sulfone] it was “not suitable”.
Take `N[C@@H](CS(=O)(=O)O)C(=O)O` [L-cysteic acid]: the “suitability as sulfur source” value in the experiment with E. coli MG1655 [1] is recorded as “positive”.
